CCCCn1cc[n+](C)c1.O=S(=O)([O-])C(F)(F)F [1-butyl-3-methylimidazolium trifluoromethanesulfonate]
surface tension liquid-gas [mN/m]
Settings | Wilhelmy plate method | du Nouy method
292.18 K | 35.39 | –
292.24 K | – | 35.4
293.4 K | 35.21 | –
293.45 K | – | 35.17
298.06 K | 35.18 | –
298.12 K | – | 35.2
298.22 K | 35.09 | –
298.27 K | – | 35.1
303.03 K | 35.05 | –
303.09 K | – | 35.09
303.18 K | 34.87 | –
303.2 K | – | 34.98
308.01 K | 34.71 | –
308.06 K | 34.83 | –
308.08 K | – | 34.85
313.26 K | 34.65 | –
313.31 K | – | 34.63
313.58 K | – | 34.59
313.59 K | 34.54 | –
318.1 K | – | 34.44
318.13 K | 34.53 | –
318.51 K | 34.35 | –
318.68 K | – | 34.36
322.87 K | 34.34 | –
322.93 K | 34.18 | –
322.99 K | – | 34.22
327.64 K | 34.19 | 34.08
328.05 K | 34.03 | –
328.09 K | – | 33.8
332.66 K | 33.85 | –
332.74 K | – | 33.82
333.21 K | 34.01 | –
333.25 K | – | 33.89
337.68 K | 33.81 | –
337.83 K | 33.74 | –
337.84 K | – | 33.44
337.92 K | – | 33.73
342.72 K | 33.61 | –
343.12 K | – | 33.47
343.53 K | 33.47 | –
343.61 K | – | 33.41
347.73 K | – | 33.36
347.79 K | 33.54 | –
348.54 K | 33.28 | –
348.64 K | – | 32.9
352.45 K | 33.27 | –
352.7 K | – | 33.08
355.89 K | 33 | –
356 K | – | 32.82

CCCCCCn1cc[n+](C)c1.O=S(=O)([O-])C(F)(F)F [1-hexyl-3-methylimidazolium trifluoromethanesulfonate]
surface tension liquid-gas [mN/m]
Settings | Wilhelmy plate method | de Nouy ring method
293.98 K | 32.58 | –
294.03 K | – | 32.64
298.11 K | – | 32.37
298.13 K | 32.37 | –
303.23 K | 32.17 | –
303.24 K | – | 32.19
308.28 K | 31.99 | –
308.32 K | – | 32.01
313.29 K | 31.8 | –
313.3 K | – | 31.86
318.29 K | – | 31.66
318.3 K | 31.64 | –
323.49 K | – | 31.42
323.5 K | 31.45 | –
328.04 K | 31.35 | –
328.12 K | – | 31.25
333.26 K | 31.09 | –
333.32 K | – | 30.89
337.85 K | 30.92 | –
337.88 K | – | 30.81
342.94 K | 30.72 | –
343.09 K | – | 30.5
347.58 K | 30.55 | –
347.59 K | – | 30.38
355.44 K | 30.28 | 30.06

CCn1cc[n+](C)c1.O=S(=O)([O-])C(F)(F)F [1-ethyl-3-methylimidazolium trifluoromethanesulfonate]
Settings | surface tension liquid-gas [mN/m]
268.29 K, Wilhelmy plate method | 41.39
268.36 K, du Nouy ring method | 41.4
272.08 K, Wilhelmy plate method | 41.28
272.13 K, du Nouy ring method | 41.3
276.54 K, Wilhelmy plate method | 41.1
276.65 K, du Nouy ring method | 41.16
281 K, Wilhelmy plate method | 40.96
281.05 K, du Nouy ring method | 41.1
287.58 K, du Nouy ring method | 40.79
287.63 K, Wilhelmy plate method | 40.69
293 K, du Nouy ring method | 40.74
293.01 K, Wilhelmy plate method | 40.52
298.01 K, Wilhelmy plate method | 40.43
298.04 K, du Nouy ring method | 40.39
303.18 K, du Nouy ring method | 40.18
303.2 K, Wilhelmy plate method | 40.24
308.2 K, Wilhelmy plate method | 40.07
308.31 K, du Nouy ring method | 40.01
313.27 K, Wilhelmy plate method | 39.93
313.31 K, du Nouy ring method | 39.75
318.36 K, Wilhelmy plate method | 39.68
318.39 K, du Nouy ring method | 39.83
323.33 K, Wilhelmy plate method | 39.5
323.38 K, du Nouy ring method | 39.38
328.2 K, du Nouy ring method | 39.44
333.07 K, Wilhelmy plate method | 39.16
333.12 K, du Nouy ring method | 39.24
338.1 K, Wilhelmy plate method | 39.03
338.15 K, du Nouy ring method | 39.02
343.14 K, Wilhelmy plate method | 38.85
343.21 K, du Nouy ring method | 38.85
348.38 K, Wilhelmy plate method | 38.65
348.53 K, du Nouy ring method | 38.62
356.09 K, Wilhelmy plate method | 38.37
356.28 K, du Nouy ring method | 38.31

From the NIST ThermoML archive (doi:10.1016/j.fluid.2011.01.027)
